Test results from patent publication US11957687B2 (REGENERON PHARMACEUTICALS, INC., priority 2019, dated 2024).

Columns and labels:
[1] = target: HSD17B13 (Homo sapiens (Human), UniProt Q7Z5P4); assay: HSD17B13 enzymatic inhibition assay (150 nM or 50 nM HSD17B13); format: biochemical; conditions: 50 nM HSD17B13; read-out: Inhibition of 50 nM of HSD17B13 IC50
[2] = target: HSD17B2 (Homo sapiens (Human), UniProt P37059); assay: HSD17B2 enzymatic blocking assay; format: biochemical; conditions: 1.8 μM Estradiol, 650 μM NAD; read-out: Inhibition of HSD17B2 IC50
Description: To screen compounds of the disclosure for their ability to block HSD17B2 function, an enzymatic blocking assay was performed. For the assay, HSD17B2 activity was measured by detecting NADH formation from oxidation of Estradiol using a NADH Glo luminescence assay (Promega, #Cat. No. G9062). Compounds of the disclosure were evaluated in a dose titration assay where the compounds were titrated at 10-point dose curve using an Echo-555 liquid handling dispenser. HSD17B2 (SEQ ID NO: 3, expressed in mammalian cells) was added at a final concentration of 2 ng/μL in a buffer containing 50 mM Tris-HCl, pH 7.5, Pluronic F-127 0.05%, Tween20 0.01%, BSA 0.01% into a low volume white 384-well assay plate. Compounds were incubated with the enzyme for 15 min at 20° C. The assay reaction was then initiated by addition of 1.8 μM Estradiol substrate (Sigma, catalog #E2758-250MG, CAS: 50-28-2) and 650 μM NAD co-factor, and the reaction mixture was incubated for 45 min at 20° C. DMSO at a concentration of 0.5% was used as a negative control and a ‘no substrate’ control was used a positive control in the assay. Detection reagent was then added as per manufacturer's instructions, and the plate was subsequently incubated in the dark for 1 hour at room temperature, NADH generated was detected in the luminescence mode on the Envision Perkin Elmer plate reader. The IC50 values were determined using Dotmatics analysis software.

[3] = Microsome stability assay, human liver microsomes; format: in vitro ADME; conditions: 1 μM compound, 0.5 mg/mL microsomal protein; for microsomal CLint at 1 μM / half-life at 1 μM / microsomal CLint at 1 h, 1 µM / half-life at 1 h, 1 µM: human, human liver microsomes, pooled, NADPH, 37° C.; for microsomal CLint at 1 μM / microsomal CLint at 1 h, 1 µM: read-out: Microsome Stability Human liver microsomes Cl; for half-life at 1 μM / half-life at 1 h, 1 µM: read-out: Microsome Stability Human liver microsomes T½
Description: (§1) Compounds of the disclosure were screened in microsome stability assays. For the screen, test compounds were incubated at 37° C. with either human liver microsomes (Corning; #452117) or mouse liver microsomes (XenoTech; #M1000), pooled from multiple donors, at 1 μM in the presence of a NADPH regenerating system at 0.5 mg/mL microsomal protein. Positive controls included in the assay were testosterone (3A4 substrate), propafenone (2D6) and diclofenac (2C9). Samples were removed at different time points (0, 5, 10, 20, 30 and 60 minutes) and immediately mixed with cold acetonitrile containing internal standard (IS, 200 ng/mL tolbutamide and 200 ng/mL labetalol). Test compounds incubated with microsomes for 60 minutes without the NADPH regenerating system was also included. A single point for each test condition (n=1) was obtained, and samples were analyzed by LC/MS/MS. Disappearance of the test compound was assessed based on peak area ratios of analyte/IS (no standard curve).

[4] = Microsome stability assay, mouse liver microsomes; format: in vitro ADME; conditions: 1 μM compound, 0.5 mg/mL microsomal protein; for microsomal CLint at 1 μM / half-life at 1 μM / microsomal CLint at 1 h, 1 µM / half-life at 1 h, 1 µM: mouse, mouse liver microsomes, pooled, NADPH, 37° C.; for microsomal CLint at 1 μM / microsomal CLint at 1 h, 1 µM: read-out: Microsome Stability Mouse liver microsomes Cl; for half-life at 1 μM / half-life at 1 h, 1 µM: read-out: Microsome Stability Mouse liver microsomes T½
Description: as §1

Chain of HSD17B2 (P37059 other isoform, or with tags, fused parts or gaps): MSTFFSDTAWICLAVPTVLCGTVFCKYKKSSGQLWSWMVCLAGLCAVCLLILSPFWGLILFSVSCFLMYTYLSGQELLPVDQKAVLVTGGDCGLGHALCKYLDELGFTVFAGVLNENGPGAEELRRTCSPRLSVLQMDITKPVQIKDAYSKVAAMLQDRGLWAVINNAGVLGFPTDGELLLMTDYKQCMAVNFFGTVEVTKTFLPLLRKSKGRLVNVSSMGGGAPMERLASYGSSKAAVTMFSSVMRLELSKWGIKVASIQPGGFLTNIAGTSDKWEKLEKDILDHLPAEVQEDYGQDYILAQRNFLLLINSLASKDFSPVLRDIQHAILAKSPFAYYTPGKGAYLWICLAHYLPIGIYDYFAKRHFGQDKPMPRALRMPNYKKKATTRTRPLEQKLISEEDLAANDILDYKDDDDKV
Chain of HSD17B13 (Q7Z5P4 other isoform, or with tags, fused parts or gaps): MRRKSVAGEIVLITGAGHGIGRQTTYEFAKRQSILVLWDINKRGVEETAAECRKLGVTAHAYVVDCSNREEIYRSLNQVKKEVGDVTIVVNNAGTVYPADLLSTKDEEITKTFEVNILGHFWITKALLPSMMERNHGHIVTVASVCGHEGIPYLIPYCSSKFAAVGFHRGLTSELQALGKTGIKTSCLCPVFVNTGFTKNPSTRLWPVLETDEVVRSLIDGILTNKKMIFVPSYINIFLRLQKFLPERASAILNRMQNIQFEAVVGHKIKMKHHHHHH

Row | IC50 [1] [nM] | IC50 [2] [µM] | Microsome Stability Human liver microsomes % Remaining @60 min [3] [%] | microsomal CLint at 1 μM [3] [µL/min/mg] | half-life at 1 μM [3] [min] | Microsome Stability Mouse liver microsomes % Remaining @60 min [4] [%] | microsomal CLint at 1 μM [4] [µL/min/mg] | half-life at 1 μM [4] [min] | microsomal CLint at 1 h, 1 µM [3] [µL/min/mg] | half-life at 1 h, 1 µM [3] [min] | microsomal CLint at 1 h, 1 µM [4] [µL/min/mg] | half-life at 1 h, 1 µM [4] [min] | SMILES
1 | 1300 | 13.2 | – | – | – | – | – | – | – | – | – | – | C=Cc1ccc(C(NC(=O)c2ccc(C(F)(F)F)[nH]c2=O)c2ccccc2)cc1 (centres unmarked) [Compound 3A, 2-oxo-N-(phenyl(4-vinylphenyl)methyl)-6-(trifluoromethyl)-1,2-dihydropyridine-3-carboxamide]
2 | 1560 | 2.27 | – | – | – | – | – | – | – | – | – | – | COc1ccc(C(C)(NC(=O)c2ccc(C(F)(F)F)[nH]c2=O)c2ccc(OC)cc2)cc1 [Compound 20A, N-(1,1-bis(4-methoxyphenyl)ethyl)-2-oxo-6-(trifluoromethyl)-1,2-dihydropyridine-3-carboxamide]
3 | 890 | 12.8 | – | – | – | – | – | – | – | – | – | – | O=C(NC(c1ccc(OC(F)F)cc1)c1ccc(OC(F)F)cc1)c1ccc(C(F)(F)F)[nH]c1=O [Compound 22, N-(bis(4-(difluoromethoxy)phenyl)methyl)-2-oxo-6-(trifluoromethyl)-1,2-dihydropyridine-3-carboxamide]
4 | 530 | 12.8 | – | – | – | – | – | – | – | – | – | – | O=C(NC1c2ccc(F)cc2-c2cc(F)ccc21)c1ccc(C(F)(F)F)[nH]c1=O [Compound 44, N-(3,6-difluoro-9H-fluoren-9-yl)-2-oxo-6-(trifluoromethyl)-1,2-dihydropyridine-3-carboxamide]
5 | 1070 | 38.1 | – | – | – | – | – | – | – | – | – | – | COc1ccc2c(c1)-c1cc(OC)ccc1C2NC(=O)c1ccc(C(F)(F)F)[nH]c1=O [Compound 46, N-(3,6-dimethoxy-9H-fluoren-9-yl)-2-oxo-6-(trifluoromethyl)-1,2-dihydropyridine-3-carboxamide]
6 | 3680 | > 100 | – | – | – | – | – | – | – | – | – | – | O=C(NC1CCc2ccccc21)c1ccc(C(F)(F)F)[nH]c1=O (centres unmarked) [Compound 63, N-(2,3-dihydro-1H-inden-1-yl)-2-oxo-6-(trifluoromethyl)-1,2-dihydropyridine-3-carboxamide]
7 | 460 | – | 1 | 154 | 9 | 1.01 | 154 | 9 | – | – | – | – | CCC[C@H]1Oc2cc(C)ccc2[C@@H]1NC(=O)c1ccc(C(F)(F)F)[nH]c1=O [Compound 358, N-((2R,3S)-6-methyl-2-propyl-2,3-dihydrobenzofuran-3-yl)-2-oxo-6-(trifluoromethyl)-1,2-dihydropyridine-3-carboxamide]
8 | 300 | – | 60.50 | 17 | 82 | 52.90 | 19.2 | 72.3 | – | – | – | – | CCC[C@@H]1C[C@@H](NC(=O)c2ccc(C(F)(F)F)[nH]c2=O)c2cc(C)ccc2N1 [Compound 361, N-((2R,4R)-6-methyl-2-propyl-1,2,3,4-tetrahydroquinolin-4-yl)-2-oxo-6-(trifluoromethyl)-1,2-dihydropyridine-3-carboxamide]
9 | 60 | – | 27.30 | 44.2 | 31.3 | 87 | < 9.6 | > 145 | – | – | – | – | CC[C@@H]1C[C@H](NC(=O)c2ccc(C(F)(F)F)[nH]c2=O)c2ccc(C)cc2N1 [Compound 366, N-((2R,4S)-2-ethyl-7-methyl-1,2,3,4-tetrahydroquinolin-4-yl)-2-oxo-6-(trifluoromethyl)-1,2-dihydropyridine-3-carboxamide]
10 | 370 | – | 51.70 | – | – | 56.20 | – | – | 23.4 | 59.3 | 18.1 | 76.4 | CCC[C@@H]1C[C@H](NC(=O)c2ccc(C(F)(F)F)[nH]c2=O)c2ccc(C)cc2N1 [Compound 368, N-((2R,4S)-7-methyl-2-propyl-1,2,3,4-tetrahydroquinolin-4-yl)-2-oxo-6-(trifluoromethyl)-1,2-dihydropyridine-3-carboxamide]
11 | 110 | – | 35.70 | – | – | 95.30 | < 9.6 | > 145 | 30.8 | 45 | – | – | CCC[C@@H]1C[C@@H](NC(=O)c2ccc(C(F)(F)F)[nH]c2=O)c2ccc(C)cc2N1 [Compound 369, N-((2R,4R)-7-methyl-2-propyl-1,2,3,4-tetrahydroquinolin-4-yl)-2-oxo-6-(trifluoromethyl)-1,2-dihydropyridine-3-carboxamide]
12 | 270 | – | 86.70 | < 9.6 | > 145 | 99.10 | < 9.6 | > 145 | – | – | – | – | Cc1ccc2c(c1)[C@H](NC(=O)c1ccc(C(F)(F)F)[nH]c1=O)C[C@@H](C)N2 [Compound 370, N-((2R,4R)-2,6-dimethyl-1,2,3,4-tetrahydroquinolin-4-yl)-2-oxo-6-(trifluoromethyl)-1,2-dihydropyridine-3-carboxamide]
13 | 40 | – | 1 | – | – | 43 | – | – | 643 | 2.15 | 27 | 51.3 | Cc1ccc2c(c1)SC(C)CC2NC(=O)c1ccc(C(F)(F)F)[nH]c1=O (centres unmarked) [Compound 385, N-(2,7-dimethylthiochroman-4-yl)-2-oxo-6-(trifluoromethyl)-1,2-dihydropyridine-3-carboxamide]
14 | 70 | – | 11 | – | – | 62.80 | – | – | 151 | 9.15 | 16.8 | 82.3 | CCC1Cc2cc(OC)ccc2C(NC(=O)c2ccc(C(F)(F)F)[nH]c2=O)C1 (centres unmarked) [Compound 390, N-(3-ethyl-6-methoxy-1,2,3,4-tetrahydronaphthalen-1-yl)-2-oxo-6-(trifluoromethyl)-1,2-dihydropyridine-3-carboxamide]
15 | 350 | – | 1.80 | – | – | 4 | – | – | 463 | 2.99 | 182 | 7.61 | Cc1ccc(C(CC2CC2)NC(=O)c2ccc(C(F)(F)F)[nH]c2=O)cc1 (centres unmarked) [Compound 401, N-(2-cyclopropyl-1-(p-tolyl)ethyl)-2-oxo-6-(trifluoromethyl)-1,2-dihydropyridine-3-carboxamide]
16 | 50 | – | 0.36 | – | – | 25.30 | – | – | 364 | 3.81 | 43.6 | 31.8 | CCC1CCc2cc(C)ccc2C1NC(=O)c1ccc(C(F)(F)F)[nH]c1=O (centres unmarked) [Compound 543, N-(2-ethyl-6-methyl-1,2,3,4-tetrahydronaphthalen-1-yl)-2-oxo-6-(trifluoromethyl)-1,2-dihydropyridine-3-carboxamide]
17 | 140 | – | 1 | – | – | 65 | – | – | 437 | 3.17 | 14.4 | 96.3 | Cc1ccc(C(CC2CCC2)NC(=O)c2ccc(C(F)(F)F)[nH]c2=O)cc1 (centres unmarked) [Compound 557, N-(2-cyclobutyl-1-(p-tolyl)ethyl)-2-oxo-6-(trifluoromethyl)-1,2-dihydropyridine-3-carboxamide]
